Laboratory results taken from ChEMBL document CHEMBL1201862, “PubChem BioAssay data set” (2004).
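Step 1: Grow cells in 96-well plates. Step 2: Expose to compound for 48 hours at 5 concentrations. Step 3: Interpolate endpoints linearly; if unreached, use highest concentration. GI50 marks 50% less growth.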 Active and inactive are the calls of the source. No stated cut-off is given here; in the data, active = GI50 up to about 1.1 µM and inactive = higher.

Columns and labels:
Assay in all cases: NCI anticancer screen, dose series, 48 h
786-0 = test system: 786-0
A549 = test system: A549
ACHN = test system: ACHN
HOP-92 = test system: HOP-92
HT-29 = test system: HT-29
KM12 = test system: KM12
M14 = test system: M14
MOLT-4 = test system: MOLT-4
NCI-H226 = test system: NCI-H226
NCI-H460 = test system: NCI-H460
OVCAR-4 = test system: OVCAR-4
OVCAR-5 = test system: OVCAR-5
SF-268 = test system: SF-268
SK-MEL-2 = test system: SK-MEL-2
SN12C = test system: SN12C
SNB-75 = test system: SNB-75
U-251 = test system: U-251
UACC-257 = test system: UACC-257

Measured: GI50

C=CCCn1nc(-c2ccccc2)oc1=O
inactive: 786-0 > 100 µM | A549 > 100 µM | ACHN > 100 µM | HOP-92 > 100 µM | HT-29 > 100 µM | KM12 > 100 µM | M14 > 100 µM | MOLT-4 > 100 µM | NCI-H226 > 100 µM | NCI-H460 > 100 µM | OVCAR-4 > 100 µM | OVCAR-5 > 100 µM | SF-268 > 100 µM | SK-MEL-2 > 100 µM | SN12C > 100 µM | SNB-75 > 100 µM | U-251 > 100 µM | UACC-257 > 100 µM

CN(c1ccccc1)c1c(Cl)c(=O)oc2c1ccc1occc12
inactive: 786-0 > 100 µM | A549 > 100 µM | ACHN > 100 µM | HOP-92 67.3 µM | HT-29 > 100 µM | M14 > 100 µM | MOLT-4 55.2 µM | NCI-H226 > 100 µM | NCI-H460 > 100 µM | OVCAR-4 > 100 µM | OVCAR-5 > 100 µM | SK-MEL-2 > 100 µM | SN12C > 100 µM | SNB-75 > 100 µM | U-251 > 100 µM | UACC-257 > 100 µM

Cc1ccc(/N=N/c2c(C)nn(-c3ccccc3)c2C)c(Br)c1
inactive: 786-0 > 100 µM | A549 > 100 µM | ACHN > 100 µM | HOP-92 > 100 µM | HT-29 76.9 µM | KM12 95.5 µM | M14 > 100 µM | MOLT-4 64 µM | NCI-H226 > 100 µM | NCI-H460 62.8 µM | OVCAR-4 > 100 µM | OVCAR-5 > 100 µM | SF-268 > 100 µM | SK-MEL-2 > 100 µM | SN12C > 100 µM | SNB-75 > 100 µM | U-251 60.8 µM | UACC-257 89.7 µM

Cc1nc2c(nc1C)C(=O)C1=C(C2=O)C2C=CC1CC2
inactive: 786-0 11.9 µM | A549 19.4 µM | ACHN 11.7 µM | HOP-92 1.97 µM | HT-29 13.9 µM | KM12 13.5 µM | M14 12.8 µM | MOLT-4 1.32 µM | NCI-H226 14.5 µM | NCI-H460 17.9 µM | OVCAR-4 1.93 µM | OVCAR-5 21.3 µM | SF-268 5.42 µM | SK-MEL-2 13.2 µM | SN12C 16.7 µM | SNB-75 28.6 µM | U-251 5.35 µM | UACC-257 4.31 µM

Cc1cn2c(=O)c3ccccc3nc2s1
inactive: 786-0 > 100 µM | A549 > 100 µM | ACHN > 100 µM | HOP-92 > 100 µM | HT-29 > 100 µM | KM12 > 100 µM | M14 > 100 µM | MOLT-4 > 100 µM | NCI-H226 > 100 µM | NCI-H460 > 100 µM | OVCAR-4 76.6 µM | OVCAR-5 > 100 µM | SF-268 > 100 µM | SK-MEL-2 > 100 µM | SN12C > 100 µM | SNB-75 92.3 µM | U-251 > 100 µM | UACC-257 > 100 µM

NC1=NC2=c3ccccc3=C(c3cnccn3)C2(c2cnccn2)c2ccccc21 (stereo not drawn)
inactive: 786-0 > 100 µM | A549 45.7 µM | ACHN 64.4 µM | HOP-92 37.9 µM | HT-29 89.5 µM | KM12 81.8 µM | M14 > 100 µM | MOLT-4 33.6 µM | NCI-H226 34.7 µM | NCI-H460 58.6 µM | OVCAR-4 42.4 µM | OVCAR-5 > 100 µM | SF-268 74.1 µM | SK-MEL-2 > 100 µM | SN12C > 100 µM | SNB-75 39.6 µM | U-251 98.9 µM | UACC-257 37.1 µM

NC(=S)N/N=C(\CCC(=O)Nc1ccccc1[N+](=O)[O-])CC(=O)c1ccco1
inactive: 786-0 > 100 µM | A549 > 100 µM | ACHN > 100 µM | HOP-92 > 100 µM | HT-29 > 100 µM | KM12 > 100 µM | M14 > 100 µM | MOLT-4 > 100 µM | NCI-H226 > 100 µM | NCI-H460 > 100 µM | OVCAR-4 > 100 µM | OVCAR-5 > 100 µM | SF-268 > 100 µM | SK-MEL-2 > 100 µM | SN12C > 100 µM | SNB-75 > 100 µM | U-251 > 100 µM | UACC-257 > 100 µM

COC(=O)C(=O)C(C#N)c1nc2ccccc2s1 (stereo not drawn)
inactive: 786-0 > 100 µM | A549 > 100 µM | ACHN > 100 µM | HOP-92 > 100 µM | HT-29 66.4 µM | M14 > 100 µM | MOLT-4 60.4 µM | NCI-H226 23.9 µM | NCI-H460 63.4 µM | OVCAR-4 > 100 µM | OVCAR-5 > 100 µM | SF-268 > 100 µM | SK-MEL-2 > 100 µM | SN12C > 100 µM | SNB-75 42.9 µM | UACC-257 > 100 µM

CN=[S+]([O-])(c1ccccc1)c1ccccc1
inactive: 786-0 > 100 µM | A549 > 100 µM | ACHN > 100 µM | HOP-92 > 100 µM | HT-29 > 100 µM | KM12 > 100 µM | M14 > 100 µM | MOLT-4 > 100 µM | NCI-H226 > 100 µM | NCI-H460 > 100 µM | OVCAR-4 > 100 µM | OVCAR-5 > 100 µM | SF-268 > 100 µM | SK-MEL-2 > 100 µM | SN12C > 100 µM | SNB-75 96.8 µM | U-251 > 100 µM | UACC-257 > 100 µM

COc1ccccc1C(O)(c1ccccc1)C(O)(c1ccccc1)c1ccccc1OC (stereo not drawn)
inactive: 786-0 > 100 µM | A549 > 100 µM | ACHN > 100 µM | HOP-92 20.3 µM | HT-29 > 100 µM | KM12 > 100 µM | M14 > 100 µM | MOLT-4 48.1 µM | NCI-H226 > 100 µM | NCI-H460 > 100 µM | OVCAR-4 > 100 µM | OVCAR-5 > 100 µM | SF-268 > 100 µM | SK-MEL-2 > 100 µM | SN12C > 100 µM | SNB-75 41.6 µM | U-251 > 100 µM | UACC-257 > 100 µM

COC1OC(COCc2ccc(Cl)cc2)C(OCc2ccc(Cl)cc2)C1N=[N+]=[N-] (stereo not drawn)
inactive: 786-0 4.7 µM | A549 4.32 µM | ACHN > 100 µM | HOP-92 97.1 µM | HT-29 > 100 µM | KM12 > 100 µM | M14 > 100 µM | MOLT-4 42.2 µM | NCI-H226 > 100 µM | NCI-H460 > 100 µM | OVCAR-4 > 100 µM | OVCAR-5 > 100 µM | SK-MEL-2 > 100 µM | SN12C > 100 µM | SNB-75 73.5 µM | U-251 > 100 µM | UACC-257 81.7 µM
